This passage reports melting point results from a melting point compilation (Tetko et al.; mined from patent text by program, amines drawn as free bases though some values may be those of a salt).

Structures are written as SMILES.

Take `COc1ccc(C(=O)Nc2ccc(N3CCC(NC[C@H](O)COc4cccc5[nH]c6ccccc6c45)CC3)cc2)cc1OC`: the melting point (as a rule, the temperature, or range, at which the solid turns liquid) was in the range of 183 to 191 °C.

Compound `COC(=O)[C@H](Cc1c(Br)n(Cc2ccccc2)c2cc(Br)c(OC)c(Br)c12)NC(C)=O` came in with a melting point of 226 to 227 °C.

`COc1ccc2nc(COc3ccc(CC(C)C(N)=S)cc3)n(C)c2c1` (stereo unspecified) gave a melting point of 204 to 206 °C.

For the compound `COCCNS(=O)(=O)c1cccc(Nc2nccc(-c3sc(N)nc3C)n2)c1`, the melting point lay in the range of 179 to 180 °C. The result for `CCCCCCc1c(C(=O)O)sc2ccsc12` reads 111 to 112 °C.

On to `COc1ccc(-c2c(Cl)c(CNC(=O)c3cccnc3)nc3sc4c(c23)CCN(Cc2ccccc2)C4)cc1OC`, for which the melting point was in the range of 124 to 125 °C. The figure for `COc1cccc2cccc(S(=O)(=O)N(C)C)c12` is 146 to 149 °C; for `Oc1cnn(-c2ccc(Cl)cc2Cl)c1` it is 148 to 149 °C; for `OCC1CNCCC1c1ccc(F)cc1` (stereo unspecified) it is 123 to 124 °C.

Consider `Cc1cn(C2(C(=O)N(C)C)CCCC2)nc1-c1ccccc1`, for which the melting point lay in the range of 99 to 101 °C. The compound `O=C(Cl)c1cc([N+](=O)[O-])cc2c1OCCO2` returned a melting point of 108 °C. The figure for `O=C(OC1CCCCC1C(C[N+](=O)[O-])c1ccc(Cl)cc1)c1ccc([N+](=O)[O-])cc1` (mixture of isomers) is 146 to 148 °C; for `CC1=NC(NC(=O)Nc2cccc(C)c2)C(=O)N(CC(=O)C2CCCCCC2)c2c(C)cccc21` (stereo unspecified) it is 171 to 175 °C; for `CC(C)(C)[Si](C)(C)Oc1ccc(NC(=O)CN2CCC(O)(Cc3ccccc3)CC2)cc1` it is 105 to 108 °C. The result for `O=c1[nH]cnc2cc3c(cc12)OCCO3` reads 275 °C; that for `CC(C)Oc1cc2c(cc1O)C(=O)CC(C)(C)O2`, 138 to 139 °C; that for `Cc1nc(-c2ccccc2)nc(-c2ccc([N+](=O)[O-])cc2)c1C(C)O` (stereo unspecified), 146 to 148 °C. As for `C=CC(=O)Nc1ccc(-c2ccc(C(=O)N3CCN4CCC3CC4)o2)cc1`, the melting point was in the range of 230 to 246 °C. Regarding `CC(C)CNC(=O)[C@H](C)C[C@H](O)[C@H](CC1CCCCC1)NC(=O)[C@H](Cc1cscn1)NC(=O)OC(C)(C)C`, the melting point lay within 178 to 180 °C. The result for `ClC1(Cl)C(c2ccccc2)C1(c1ccccc1)c1ccccc1` (stereo unspecified) reads 106 to 107 °C; that for `O=C1OC(CCI)C(O)=C1O` (stereo unspecified), 150 to 151 °C; that for `N#Cc1nn(-c2c(Cl)cc(C(F)(F)F)cc2Cl)c(N)c1SC(F)(F)F`, 163 °C.

`Cc1cc2ccccc2nc1C(=O)O` returned a melting point of 141 to 142 °C. The result for `CCCc1c(OCCCOc2ccc(C(=O)O)cc2Br)ccc(C(C)=O)c1OC(C)=O` reads 125 to 127 °C; that for `CCC1CN(Cc2ccccc2)c2c3c(nc4cccc(c24)O1)CCCC3` (stereo unspecified), 148 to 149 °C; that for `Cc1nc2c(c3c1[nH]c1cc(F)ccc13)C(=O)CC(C)(C)C2`, 244 to 246 °C. The figure for `CCOC(=O)C1=C(C)NC(CCn2ccnc2)=C(C(=O)OCC)C1c1ccccc1[N+](=O)[O-]` (stereo unspecified) is 140 to 141 °C.

On to `CCc1cc(OC)c(C=C(C)[N+](=O)[O-])cc1OC`, for which the melting point lay within 63 to 64 °C.

`CC1=C(C(=O)OC(C)C)C(c2cccc([N+](=O)[O-])c2)n2c(cc(=O)n2S(=O)(=O)c2ccccc2)N1` (stereo unspecified): the melting point lay within 187 to 188 °C. As for `Nc1ccc2ccc(Oc3cccc(Cl)c3)nc2n1`, the melting point worked out at 166 °C. The figure for `Cc1nc2c(O)c(C(=O)[C@@H]3OC(C)(C)O[C@H]3c3ccccc3)ccc2n1C1CC1` is 153 °C; for `Cc1c(Cc2nc(C(=O)O)cs2)n(S(=O)(=O)c2cccc(C(C)(C)C)c2)c2ccc(C(F)(F)F)cc12` it is 60 °C. The figure for `COc1nccc(N[C@H]2CC[C@H](c3ccccc3)CC2)c1Br` is 105 °C. The figure for `ClCC1COC(Cc2ccc(Cl)cc2)(c2ccccc2)O1` (stereo unspecified) is 65 °C.

`CC(C(=O)N1c2ccccc2C(=O)Nc2cccnc21)N1CCN(C)CC1` (stereo unspecified) registered a melting point of 223 to 224 °C. The result for `CCOC(=O)c1c(C(=O)OCC)c(-c2ccc(OC)c(OC)c2)c2c(OC)c(OC)c(OC)cc2c1O` reads 138 to 140 °C.

With `CN(C)S(=O)(=O)c1cc2c(c(Cl)c1Cl)OC(CO)C2` (stereo unspecified), the melting point lay in the range of 133 to 134 °C. The figure for `O=C(OCCN1C(=O)c2ccccc2C1=O)c1cccc2c(=O)c(OCCN3C(=O)c4ccccc4C3=O)c(-c3ccc(OCc4ccc5ccccc5n4)cc3)oc12` is 211 to 212 °C; for `COc1cc2cc(C)c(CO)c(-c3ccnc(Br)c3)c2cc1OC` it is 106 to 108 °C; for `O=Cc1ccc(OCCN2CCN(c3cc(Cl)nnc3Cl)CC2)cc1` it is 110 to 112 °C.

Compound `COCOCC1Oc2c(OC)cccc2C1=O` (stereo unspecified) had a melting point of 71 to 72 °C.

For `COc1cc(OC)c2c(=O)c3ccccc3oc2c1`, the melting point was in the range of 170 to 171 °C. The figure for `Cc1ccc(-c2ccc3c(c2)C=C(C(=O)Nc2ccc(CN4CCCCC4)cc2)C3)cc1` is 219 to 220 °C; for `S=C(Nc1ccccc1)N(Cc1ccc(Br)cc1)C1CCCC1` it is 129 to 131 °C. The result for `CS(=O)(=O)c1ccc(-n2nc(C(=O)O)cc2-c2ccc(-c3ccco3)cc2)cc1` reads over 280 °C; that for `COc1nc(C)cnc1N(C(=O)OCC(C)C)S(=O)(=O)c1cccnc1-c1ccc(CBr)cc1`, 125 to 128 °C; that for `COCOCCCOn1cnc2cnc(N)nc21`, 80 to 81 °C. Consider `CCOC(=O)c1cc([N+](=O)[O-])c(Cl)c(S(N)(=O)=O)c1`, for which the melting point is 154 °C. The result for `COC(=O)c1c(CSc2nccn2C)nc2cc(OC)c(OC)cc2c1-c1ccc(OC)c(OC)c1` reads 159 to 160 °C; that for `O=C(O)c1cc2cc(Cl)c(Cl)cc2nc1N[C@@H](Cc1ccccc1)C(=O)O`, 141 to 143 °C; that for `CC(C)c1cc(OCCOCc2ccccc2)cc2c1C(=O)N(CSc1ccccc1)S2(=O)=O`, 98 to 99 °C.

`CCCc1nn(C)c2c(=O)n(CCNc3ccc(SC(C)(C)C(=O)OCC)cc3)c(CC)nc12` displayed a melting point of 105 to 107 °C. The figure for `CNCC(=O)N[C@@H](CCCNC(=N)N)C(=O)N[C@@H](CCCNC(=N)N)C(=O)N[C@@H](C)P(=O)(O)O` is 220 °C. The figure for `CCn1c(Oc2cccc(N3CCC4(CC3)OCCO4)c2)nnc1[C@@H](C)NS(=O)(=O)c1ccc(Cl)c(Cl)c1` is 174 to 179 °C; for `O=C(CCCC(=O)N1CCC(c2ccc(Cl)cc2)CC1)c1ccc2c(c1)CCNCC2` it is 112 to 113 °C; for `Cc1c(-c2ccccc2)c(N2CC[C@H](N(C)C)C2)c2oc(/C=C/c3ccccc3)nc2c1C#N` it is 165 to 166 °C. Take `O=C(O)c1ccccc1Nc1ccnn1-c1ccccn1`: the melting point lay within 216 to 218 °C. The result for `COc1cccc(OCCN2CCC(N(C)c3nccc(N(C)C)n3)CC2)c1` reads 105 °C. The figure for `COc1cc2ncc(C#N)c(Nc3cccnc3)c2cc1OC` is 231 to 233 °C; for `CSC(SC)=C(C#N)S(=O)(=O)c1ccccc1` it is 99 to 101 °C. Consider `CN1[C@H]2CC[C@@H]1[C@H](c1nc(-c3ccncc3)no1)[C@@H](c1ccc3c(c1)OCO3)C2`, for which the melting point was in the range of 110 to 112 °C. The figure for `COC(=O)CNC(=S)n1nc(-c2ccc(Cl)cc2)nc1N` is 142 to 145 °C; for `CN1CCC(=C2c3ccccc3CCc3sc(Br)cc32)CC1` it is 141 to 142 °C; for `CC(=O)c1c(O)cc(O)cc1O` it is 218 to 219 °C. In turn, `O=C(O)Cc1sccc1NC(=O)C(=O)NC(=O)c1ccco1` showed a melting point of 169 °C.

For the compound `CCCCCCCCc1ccc(C(=O)CCCCCC(=O)OCC)cc1`, the melting point lay within 38 to 40 °C. The figure for `NCc1cccc(C2CCN(c3nc4c(cc3F)c(=O)c(C(=O)O)cn4C3CC3)C2)c1` (stereo unspecified) is 274 to 276 °C; for `CC1(C)Cc2sccc2C(=O)N1` it is 153 to 154 °C; for `CC(C)c1cc(C(C)C)c(S(=O)(=O)n2cc3c4c(cccc42)C(=O)CC3)c(C(C)C)c1` it is 124 to 130 °C. The figure for `COc1ccc(OC)c(C2(C(C)(C)O)CCN(C)CC2)c1` is 139 to 140 °C; for `COc1ccc(CCN2CCN(C(=O)c3ccc(N(CCOC(C)C)C(=O)CCl)cc3)CC2)cc1` it is 139 to 140 °C; for `Cc1cc(O)c(N)c([N+](=O)[O-])c1` it is 197 to 199 °C. The figure for `CN(C)S(=O)(=O)n1cc(S(=O)(=O)N2CCc3ccccc3C2)nc1C#N` is 143 to 144 °C; for `O=C(NCC1CC1)c1cc2nccnc2c(Cl)c1NC(=O)c1cc(C(F)(F)F)nn1-c1ncccc1Cl` it is 180 to 183 °C. For `Cc1cc(Nc2cncc(Nc3ccc(Cl)c(OCCN(C)C)c3)n2)n[nH]1`, the melting point lay within 145 to 147 °C. The compound `CCOC(=O)C1=C(N)N=C(OCC)C(C(=O)OCC)C1c1ccc(SC)cc1` (stereo unspecified) displayed a melting point of 132 °C. The figure for `COc1cccc(CCC(=O)c2c[nH]cn2)c1OC` is 120 to 125 °C; for `CCCCc1c(C(C)C)nc(C(C)C)c(C(C)O)c1-c1ccc(F)cc1` (stereo unspecified) it is 103 to 104 °C. `CCCOc1nc(N)nc2nc[nH]c12` had a melting point of 198 to 200 °C. The result for `CC(=O)Nc1c(C(=O)c2ccccc2)[nH]c2ccc(NS(C)(=O)=O)cc12` reads 260 to 261 °C. The figure for `Cc1ccn2cc(CCc3ccc4nc(N)oc4c3)nc2c1` is 262 to 264 °C; for `O=C1CC(c2ccc(Cl)cc2)Oc2ccccc21` (stereo unspecified) it is 96 to 98 °C; for `Oc1ccc(-c2c3ccccc3c(Br)c3sc4ccccc4c23)cc1` it is 211 to 213 °C.

Compound `C1=C(CCC2=Cc3ccccc32)c2ccccc21` returned a melting point of 86 to 87 °C.

With `CCOC(=O)Nc1cc(-c2ccccc2)n(-c2ccc(S(N)(=O)=O)cc2)n1`, the melting point was in the range of 121 to 128 °C. Regarding `CCOC(=O)Cc1ccc(-c2nc(COc3ccc(CO)cc3OC)c(C)o2)cc1`, the melting point fell in the range of 97 to 98 °C.
